Reference: patent US20240059698A1 (Accutar Biotechnology Inc., priority 2022, published 2024)

Legend:
Assay type in all cases: cell-based
[1] = system: HCC827-YVMA cells (human ERBB2 exon20 insertion mutant A775_G776ins YVMA); assay: Cell growth inhibition (CellTiter-Glo), HCC827-YVMA; settings: 72 h, HCC827-YVMA cells, 3 days, CellTiter-Glo, read-out: Cell growth inhibition, GI50 (nM) HCC827-YVMA
Outline: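 HCC827 cells transduced with lentiviral codon-optimized mutant (ERBB2 A775_G776insYVMA or EGFR V769_D770insASV), endogenous EGFR knocked out by CRISPR, single clone selected. Cells seeded overnight in RPMI/10% FBS, then exposed to serially diluted compounds at 37 °C for 3 days; viability read by CellTiter-Glo luminescence.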

[2] = system: HCC827-SVD cells (human EGFR exon 20 insertion mutant D770_N771insSVD); assay: Cell growth inhibition (CellTiter-Glo), HCC827-SVD; settings: 72 h, 3 days
Outline: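 HCC827 cells with endogenous EGFR knocked out and lentivirally expressing the insertion mutant (single clone) were seeded at 5000 cells/well in RPMI with 10% FBS. After overnight, compounds added; 3 days at 37 °C, then CellTiter-Glo luminescence.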

[3] = system: HCC827 cells; assay: Cell growth inhibition (CellTiter-Glo), HCC827; settings: Homo sapiens, 72 h, 3 days
Outline: (§1)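 HCC827 cells in RPMI and A431 cells in DMEM (both 10% FBS) were seeded at 5000 cells/well and left overnight. They were then exposed to compound dilutions for 3 days at 37° C. Viability was read by CellTiter-Glo luminescence.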

[4] = system: HCC827-ASV cells (human EGFR exon 20 insertion mutant V769_D770insASV); assay: Cell growth inhibition (CellTiter-Glo), HCC827-ASV; settings: 72 h, HCC827-ASV cells, 3 days, CellTiter-Glo, read-out: Cell growth inhibition, GI50 (nM) HCC827-ASV
Protocol: Generation of HCC827-SVD, HCC827-ASV, and HCC827-YVMA cell lines. The HCC827-SVD cell line was generated by first transducing HCC827 cells (ATCC) with lentiviral particles expressing codon-optimized human EGFR exon 20 insertion mutant D770_N771insSVD, and then selecting under 5 µg/mL puromycin treatment for a week. The resulting cells were further transduced with lentiviral particles carrying EGFR sgRNA and CAS9 to knockout the endogenous alleles of EGER and then selected under 500 µg/mL hygromycin B treatment for two weeks. The limiting dilution approach was used to subsequently generate the single clone of the HCC827-SVD stable cell line. Endogenous EGFR knockout was confirmed by Sanger sequencing of cell genomic DNA, and expression of exogenous mutant EGFR was verified by Western blot analysis.
HCC827-ASV and HCC827-YVMA cell lines were generated in a similar approach as HCC827-SVD, except that HCC827 cells (ATCC) were first transduced with lentiviral particles expressing codon-optimized human EGFR exon 20 insertion mutant V769_D770insASV and human ERBB2 exon20 insertion mutant A775_G776ins YVMA, respectively.
2. Cell Growth Inhibition for HCC827, HCC827-SVD, HCC827-ASV, HCC827-YVMA, and A431.
HCC827(ATCC), HCC827-SVD, HCC827-ASV, and HCC827-YVMA cells were seeded in 96-well plates at 5000 cells/well in 90 μL of RPMI growth medium containing 10% FBS and 1% Penicillin Streptomycin. A431 (ATCC) cells were seeded in 96-well plates at 5000 cells/well in 90 μL of DMEM growth medium containing 10% FBS and 1% Penicillin Streptomycin. Cells were incubated at 37° C. overnight and then administered with 10 μL 10× test compounds prepared in the growth medium at various concentrations. After administration of the compounds, cells were incubated at 37° C. for 3 days. Before the CellTiter-Glo assay, the plates were equilibrated at room temperature for approximately 30 minutes. 100 ul of CellTiter-Glo reagent (Promega) was added to each well. The plates were then incubated at room temperature for 10 minutes and luminescence was recorded by the EnSight® multimode plate reader (PerkinElmer). Table 7 listed selected compounds in cellular growth assay.

[5] = system: A431 cells; assay: Cell growth inhibition (CellTiter-Glo), A431; settings: Homo sapiens, A-431, 72 h, 3 days
Outline: as §1

Row | SMILES | GI50 [1] [nM] | GI50 [2] [nM] | GI50 [3] [nM] | GI50 [4] [nM] | GI50 [5] [nM]
1 | C=CC(=O)N1CC=C(c2c[nH]c3ncnc(Nc4ccc(OCc5ccccn5)c(Cl)c4)c23)CC1 [Compound 154, 1-(4-(4-((3-chloro-4-(pyridin-2-ylmethoxy)phenyl)amino)-7H-pyrrolo[2,3-d]pyrimidin-5-yl)-3,6-dihydropyridin-1(2H)-yl)prop-2-en-1-one] | < 50 | < 50 | < 50 | < 50 | 200 to 1000
2 | C=CC(=O)N1CCC(c2c[nH]c3ncnc(Nc4ccc(Oc5ccnc(N6C[C@@H](C)O[C@@H](C)C6)c5)cc4F)c23)CC1 [Compound 155, 1-(4-(4-((4-((2-((2S,6R)-2,6-dimethylmorpholino)pyridin-4-yl)oxy)-2-fluorophenyl)amino)-7H-pyrrolo[2,3-d]pyrimidin-5-yl)piperidin-1-yl)prop-2-en-1-one] | 50 to 200 | 50 to 200 | > 1000 | 200 to 1000 | > 1000
3 | C=CC(=O)N1CCC(c2c[nH]c3ncnc(Nc4ccc(OCc5ccccn5)c(Cl)c4)c23)CC1 [Compound 156, 1-(4-(4-((3-chloro-4-(pyridin-2-ylmethoxy)phenyl)amino)-7H-pyrrolo[2,3-d]pyrimidin-5-yl)piperidin-1-yl)prop-2-en-1-one] | < 50 | < 50 | < 50 | < 50 | < 50
4 | C=CC(=O)N1CCC(c2c[nH]c3ncnc(Nc4ccc(Oc5ccn(Cc6cc(C)ccn6)n5)cc4F)c23)CC1 [Compound 157, 1-(4-(4-((2-fluoro-4-((1-((4-methylpyridin-2-yl)methyl)-1H-pyrazol-3-yl)oxy)phenyl)amino)-7H-pyrrolo[2,3-d]pyrimidin-5-yl)piperidin-1-yl)prop-2-en-1-one] | 50 to 200 | 50 to 200 | 200 to 1000 | 50 to 200 | > 1000
5 | C=CC(=O)N1CCC(c2csc3ncnc(Nc4ccc(Oc5ccn(Cc6cc(C)ccn6)n5)cc4F)c23)CC1 [Compound 158, 1-(4-(4-((2-fluoro-4-((1-((4-methylpyridin-2-yl)methyl)-1H-pyrazol-3-yl)oxy)phenyl)amino)thieno[2,3-d]pyrimidin-5-yl)piperidin-1-yl)prop-2-en-1-one] | 50 to 200 | > 1000 | > 1000 | 200 to 1000 | > 1000
6 | C=CC(=O)N1CCC(c2csc3ncnc(Nc4ccc(Oc5ccnc(N6C[C@@H](C)O[C@@H](C)C6)c5)cc4F)c23)CC1 [Compound 159, 1-(4-(4-((4-((2-((2R,6S)-2,6-dimethylmorpholino)pyridin-4-yl)oxy)-2-fluorophenyl)amino)thieno[2,3-d]pyrimidin-5-yl)piperidin-1-yl)prop-2-en-1-one] | 200 to 1000 | 200 to 1000 | > 1000 | 200 to 1000 | > 1000
7 | C=CC(=O)N1CCC(c2csc3ncnc(Nc4ccc(OCc5ccccn5)c(Cl)c4)c23)CC1 [Compound 160, 1-[4-[4-[3-chloro-4-(2-pyridylmethoxy)anilino]thieno[2,3-d]pyrimidin-5-yl]-1-piperidyl]prop-2-en-1-one] | < 50 | < 50 | < 50 | < 50 | < 50
8 | C=CC(=O)N1CCC(c2n[nH]c3ncnc(Nc4ccc(Oc5ccn(Cc6cc(C)ccn6)n5)cc4F)c23)CC1 [Compound 164, 1-(4-(4-((2-fluoro-4-((1-((4-methylpyridin-2-yl)methyl)-1H-pyrazol-3-yl)oxy)phenyl)amino)-1H-pyrazolo[3,4-d]pyrimidin-3-yl)piperidin-1-yl)prop-2-en-1-one] | 50 to 200 | 200 to 1000 | 200 to 1000 | 200 to 1000 | 200 to 1000
9 | C=CC(=O)N1CCC(c2n[nH]c3ncnc(Nc4ccc(OCc5ccccn5)c(Cl)c4)c23)CC1 [Compound 166, 1-(4-(4-((3-chloro-4-(pyridin-2-ylmethoxy)phenyl)amino)-1H-pyrazolo[3,4-d]pyrimidin-3-yl)piperidin-1-yl)prop-2-en-1-one] | < 50 | < 50 | < 50 | < 50 | < 50
10 | C=CC(=O)N1CCC(c2n[nH]c3ncnc(Nc4ccc(Oc5ccnc(N6C[C@@H](C)O[C@@H](C)C6)c5)cc4F)c23)CC1 [Compound 167, 1-(4-(4-((4-((2-((2R,6S)-2,6-dimethylmorpholino)pyridin-4-yl)oxy)-2-fluorophenyl)amino)-1H-pyrazolo[3,4-d]pyrimidin-3-yl)piperidin-1-yl)prop-2-en-1-one] | 50 to 200 | 50 to 200 | > 1000 | 50 to 200 | > 1000
11 | C=CC(=O)N1CCC(c2n[nH]c3ncnc(Nc4ccc(Oc5ccnc(N6CCC(C(F)(F)F)C6)c5)cc4F)c23)CC1 (centres unmarked) [Compound 173, 1-(4-(4-((2-fluoro-4-((2-(3-(trifluoromethyl)pyrrolidin-1-yl)pyridin-4-yl)oxy)phenyl)amino)-1H-pyrazolo[3,4-d]pyrimidin-3-yl)piperidin-1-yl)prop-2-en-1-one] | < 50 | 50 to 200 | 200 to 1000 | < 50 | > 1000
12 | C=CC(=O)N1CCC(c2n[nH]c3ncnc(Nc4ccc(Oc5ccnc(N6CCC(F)(F)C6)c5)cc4F)c23)CC1 [Compound 175, 1-(4-(4-((4-((2-(3,3-difluoropyrrolidin-1-yl)pyridin-4-yl)oxy)-2-fluorophenyl)amino)-1H-pyrazolo[3,4-d]pyrimidin-3-yl)piperidin-1-yl)prop-2-en-1-one] | 50 to 200 | 50 to 200 | > 1000 | 50 to 200 | > 1000
13 | C=CC(=O)N1CCC(c2n[nH]c3ncnc(Nc4ccc(Oc5ccnc(N6CC(O)(C(F)(F)F)C6)c5)cc4F)c23)CC1 [Compound 177, 1-(4-(4-((2-fluoro-4-((2-(3-hydroxy-3-(trifluoromethyl)azetidin-1-yl)pyridin-4-yl)oxy)phenyl)amino)-1H-pyrazolo[3,4-d]pyrimidin-3-yl)piperidin-1-yl)prop-2-en-1-one] | 50 to 200 | 200 to 1000 | > 1000 | 200 to 1000 | > 1000
14 | C=CC(=O)N1CCC(c2n[nH]c3ncnc(Nc4ccc(Oc5ccnc(N6CC7CC7C6)c5)cc4F)c23)CC1 (centres unmarked) [Compound 180, 1-(4-(4-((4-((2-(3-azabicyclo[3.1.0]hexan-3-yl)pyridin-4-yl)oxy)-2-fluorophenyl)amino)-1H-pyrazolo[3,4-d]pyrimidin-3-yl)piperidin-1-yl)prop-2-en-1-one] | < 50 | 50 to 200 | 200 to 1000 | 50 to 200 | > 1000
15 | C=CC(=O)N1CCC(c2ccn3ncnc(Nc4ccc(Oc5ccn(Cc6cc(C)ccn6)n5)cc4F)c23)CC1 [Compound 197, 1-(4-(4-((2-fluoro-4-((1-((4-methylpyridin-2-yl)methyl)-1H-pyrazol-3-yl)oxy)phenyl)amino)pyrrolo[2,1-f][1,2,4]triazin-5-yl)piperidin-1-yl)prop-2-en-1-one] | 200 to 1000 | > 1000 | > 1000 | > 1000 | > 1000
16 | C=CC(=O)N1CCC(c2ccn3ncnc(Nc4ccc(OCc5ccccn5)c(Cl)c4)c23)CC1 [Compound 198, 1-(4-(4-((3-chloro-4-(pyridin-2-ylmethoxy)phenyl)amino)pyrrolo[2,1-f][1,2,4]triazin-5-yl)piperidin-1-yl)prop-2-en-1-one] | < 50 | < 50 | < 50 | < 50 | < 50
